# Test results: patent US12298308B2, “Neoadjuvant chemotherapy induces breast cancer metastasis through a TMEM-mediated mechanism” (Albert Einstein College of Medicine, priority 2017, dated 2025)
# Tests used:
# [1] = test system: TMEM; assay: TMEM score by triple-stain immunohistochemistry in mouse breast tumors; assay type: in vivo
# Source text: This hypothesis was investigated in the following breast carcinoma models: (i) transgenic MMTV-PyMT mice bearing spontaneous breast tumors, (ii) FVB mice transplanted orthotopically with tumors from MMTV-PyMT donors, and (iii) two patient-derived xenografts (PDX), HT17 and HT33, developed previously in our laboratory (31). […] Treatment of all groups began at the early carcinoma stage (tumor size of ˜0.3 cm) when there is minimal or absent necrosis. It was decided to work with the early-stage PyMT mouse mammary carcinoma model because it more accurately reflects clinically relevant scenarios where most women present with small tumors of <2 cm (32).
# (§1) Drug Administration. The following drugs were administered in mice: Paclitaxel was given at 10 mg/Kg i.v every 5 days for 2 weeks; Doxorubicin was given at 5 mg/Kg i.v. every 5 days for 2 weeks; Cyclophosphamide was given at 120 mg/Kg i.p. only once; Rebastinib was given at 10 mg/Kg per os, every 3-4 days for 4 weeks.
# (§2) Animals and Animal Procedures. MMTV-PyMT mice were bred in-house at the Albert Einstein College of Medicine (AECOM). Generation of MMTV-PyMT Mena^−/− has been described previously (28). CFP- or Dendra2-labeled mammary carcinoma cells were generated on the FVB background by co-injection of Tg(MMTV-iCRE)1jwp together with Tg(PCAG-loxp-CATstop-loxp-CFP) or Tg(loxP-stop-loxP-PDendra2)jwp plasmids, respectively, by conventional methods in the Albert Einstein Transgenic Mouse Facility. All syngeneic transplantation models were generated through orthotopic transplantation of 1 mm×1 mm tumor chunks, using tumors of 1 cm-diameter from 12-16-week old MMTV-PyMT mena−/− or mena+/+ donor mice into 5-6 week-old FVB recipients. Tumor chunks were implanted on the fourth mammary pad on the left side. The generation of the ER^− HT17 and ER^+ HT33 patient-derived xenografts has been described previously (31). Animal handling and associated procedures were approved by the Institutional Animal Care and Use Committee (IACUC). Additional information is detailed in Supplementary Methods.
# Histology and TMEM Immunohistochemistry. Breast tumors and lungs were isolated, rinsed in PBS, fixed in 10% neutral buffered formalin for 48 hours, dehydrated and embedded in paraffin. Sections (5 μm) were stained with H & E or TMEM triple-stain immunohistochemistry, as previously described (3).
# [2] = test system: circulating tumor cells; assay: Circulating tumor cells per mL of blood; assay type: in vivo, mouse; conditions: PyMT-transplantation and HT17 xenograft
# Description: as §1
# Circulating Tumor Cells. Mice were anesthetized with 3.5-4.5% isoflurane, and blood was taken from the right ventricle by heart puncture, using 25G needles coated with heparin. Erythrocytes were lysed, using 10 ml of 1×RBC lysis buffer (multi-species, eBioscience). Cancer cells were quantified, as previously described (31, 60).
# [3] = test system: TMEM; assay: Intravital imaging of TMEM-dependent vascular permeability (bursting); assay type: in vivo, mouse; conditions: co-administration of rebastinib in paclitaxel-treated mice; intravital imaging
# Source text: Paclitaxel Induces TMEM-Dependent Vascular Permeability in Breast Tumors—Given that chemotherapy treatment may affect blood vessel dynamics by inducing angiogenesis (9, 11-13, 35-37), intravital imaging (IVI) (FIG. 2A) was used to investigate whether neoadjuvant paclitaxel induces TMEM-dependent (localized) or TMEM-independent (more universal) blood vessel leakage. […] As also reported previously (1), we never observed any bursting incidents without juxtaposition to a clearly defined TMEM site. Bursting was documented by the accumulation of Dextran-TMR signal over time around an active TMEM site, and no such accumulation was observed away from TMEM (FIGS. 2B-C). The entire time-lapse of these was recorded in videos, respectively. The intensity values from all TMEM-mediated bursting incidents observed in paclitaxel-treated mice were averaged and plotted over the entire time of bursting activity (FIG. 2D), which confirmed the transient nature of paclitaxel-induced TMEM-dependent vascular permeability.
# as §1
# Intravital Imaging. Intravital imaging was performed using a custom-built two-laser multiphoton microscope, as previously described (57). Mice were anesthetized using 0.75-2.5% isofluorane, depilated. A skin flap procedure, previously developed (58), was performed by exposing the 4th or 5th mammary fat pad. Given the early stage of carcinoma and small tumor size, this necessitated the development of a custom fixturing technique where the exposed tissue was stabilized by affixing the edge of a 10-mm window fitted with an 8-mm clear aperture respectively with cyanoacrylate. The mouse was then placed on a fixturing plate, fitted to the respective window, on the microscope xy stage and imaging was performed in the center of the window away from the glue. The animal was placed in a heated chamber, AirTherm ATX forced air heater (WPI Inc.), maintained at physiologic temperature during the course of imaging, and supplemented with 50-100 uL of PBS per hour via the tail vein catheter. As previously described (1), three milligrams of 155-kDa TMR-dextran (Sigma) were administered via the catheter to visualize the vasculature. All images were reconstructed and analyzed in ImageJ (59), as described in Supplementary Methods.
# [4] = test system: Tie2^hi/Vegf^hi macrophages; assay: Macrophage infiltration by multi-channel immunofluorescence (Iba1, Cd31, Tie2, Vegf); assay type: in vivo, mouse
# Source text: The functional TMEM sites contain Tie2^hi/Vegf^hi macrophages and invasive tumor cells in perivascular regions (1), and it was independently shown that chemotherapy may promote mobilization of such Tie2^hi monocyte progenitors in primary tumors (8, 10). The Tie2^hi/Vegf^hi macrophage subpopulation was quantified herein using multi-channel immunofluorescence (IF) imaging (FIGS. 1D-F) (10, 14, 34). FIG. 1E illustrates a representative IF image of a Tie2^hi/Vegf^hi macrophage quantified using Cd31, Iba1, Vegf and Tie2 staining.
# as §1, §2
# Immunofluorescence. Slides were deparaffinized by melting at 60° C. in an oven equipped with a fan for 20 minutes, followed by 2× xylene treatment for 20 minutes. Slides were rehydrated and antigen retrieval was done in 1 mM EDTA (pH 8.0) or 1× citrate buffer (pH 6.0) (Diagnostic BioSystems) at 97° C. for 20 minutes in a conventional steamer. Endogenous peroxidase was blocked by using 0.3% hydrogen peroxide in water, followed by incubation of slides in a blocking buffer solution (10% FBS, 1% BSA, 0.0025% fish skin gelatin in 0.05% PBST) for 60 minutes at room temperature. The following primary antibodies were used in different combinations, depending on the experiment: chicken anti-Mena^INV (0.25 ug/mL, generated in-house in the lab of John S. Condeelis), rabbit anti-Cd31 (1:400; 77699s; Cell Signaling), rabbit anti-Vegf (1:2,000; Rb 9031-PO-A; Thermo), rat anti-Tie2 (1:100; 16-5987-82; eBioscience), rabbit anti-Iba1 (1:6,000; 019-19741; Wako), rat anti-endomucin (1:500; sc-65495; Santa Cruz), rabbit anti-TMR (1:1,000; A-6397; Life Technologies). Secondary antibody treatment was performed using HRP-conjugated antibodies, and was followed by tyramide signal amplification (TSA), using the Perkin Elmer; Opal™ 4-color Fluorescent IHC kit, according to the manufacturer's directions. All slides were imaged on the Pannoramic 250 Flash II digital whole slide scanner, using a 20×0.75NA objective lens. Image analysis was performed in ImageJ, detailed in Supplementary Methods.
# [5] = rebastinib in paclitaxel-treated animals
# [6] = single agent vs vehicle, PyMT-transplantation and HT17 xenograft
structure (smiles),measurement,setting,value
"CNC(=O)c1cc(Oc2ccc(NC(=O)Nc3cc(C(C)(C)C)nn3-c3ccc4ncccc4c3)c(F)c2)ccn1 [rebastinib, 4-[4-[(5-tert-butyl-2-quinolin-6-ylpyrazol-3-yl)carbamoylamino]-3-fluorophenoxy]-N-methylpyridine-2-carboxamide]",TMEM assembly,[1]; [5],without affecting
same,overall TMEM score (TMEM assembly),[1]; [6],did not significantly affect
same,circulating tumor cells,[2]; [5],decreased circulating tumor cells to the level observed in the control animals
same,number of CTCs (TMEM activity),[2]; single agent vs vehicle,reduced
same,frequency of bursting,[3],completely abolished
same,incidence of bursting,[3],completely abolished
same,number of perivascular Tie2^hi/Vegf^hi macrophages,[4]; [5],decreased
same,density of perivascular Tie2^hi/Vegf^hi macrophages,[4]; [6],did not significantly affect
